Measurements taken from patent US10072262B2, “RIG-I ligands and methods for producing them” (RHEINISCHE FRIEDRICH-WILHELMS-UNIVERSITÄT BONN, priority 2012, dated 2018).

Target: T1, RIG-I (Homo sapiens, UniProt O95786)
T1 construct: endogenous in cells
T1 sequence (O95786 1-925): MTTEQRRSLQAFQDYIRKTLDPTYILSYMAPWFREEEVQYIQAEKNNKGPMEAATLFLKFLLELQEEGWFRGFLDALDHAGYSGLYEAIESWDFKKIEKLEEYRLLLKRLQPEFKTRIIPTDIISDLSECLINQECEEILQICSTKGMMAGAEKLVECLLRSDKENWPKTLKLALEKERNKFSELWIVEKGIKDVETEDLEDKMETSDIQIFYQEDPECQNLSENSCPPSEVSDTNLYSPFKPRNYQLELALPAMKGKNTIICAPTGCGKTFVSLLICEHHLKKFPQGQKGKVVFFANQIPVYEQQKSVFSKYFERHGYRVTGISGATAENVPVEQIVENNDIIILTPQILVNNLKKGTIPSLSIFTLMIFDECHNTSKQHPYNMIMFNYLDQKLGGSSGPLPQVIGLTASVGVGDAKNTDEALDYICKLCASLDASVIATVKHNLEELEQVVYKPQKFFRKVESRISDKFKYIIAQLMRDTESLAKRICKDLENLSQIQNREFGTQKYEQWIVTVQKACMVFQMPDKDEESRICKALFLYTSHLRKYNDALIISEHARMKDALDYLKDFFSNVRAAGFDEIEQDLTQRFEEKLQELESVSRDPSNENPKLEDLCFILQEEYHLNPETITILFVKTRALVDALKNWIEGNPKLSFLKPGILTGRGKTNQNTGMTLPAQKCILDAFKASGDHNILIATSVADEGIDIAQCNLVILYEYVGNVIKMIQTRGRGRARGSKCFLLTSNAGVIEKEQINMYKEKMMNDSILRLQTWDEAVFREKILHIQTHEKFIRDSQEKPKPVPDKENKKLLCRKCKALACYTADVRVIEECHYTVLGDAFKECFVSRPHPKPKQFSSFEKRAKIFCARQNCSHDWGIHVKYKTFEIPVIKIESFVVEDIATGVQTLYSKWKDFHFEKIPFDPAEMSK
Assay: RIG-I stimulation: chloroquine-blocked PBMCs, duplex lipofection, IFNa ELISA at 20 h
Type: cell-based
Conditions: FIG. 7B titration
Description: A screen of 2′-O-methylations resolved positions to introduce RIG-I selectivity (FIG. 5). For the sense (A) and antisense (B) strand of OH-GFP2 a full 2′-O-methylation screen was performed. Each position was modified individually by 2′-O-methylation and used for stimulation of RIG-I, TLR7 or TLR8. For stimulation of RIG-I, peripheral blood mononuclear cells (PBMCs) were blocked with Chloroquine and stimulated by lipofection of the duplex. IFNa was measured 20 h post stimulation by ELISA. For TLR7 and TLR8 only the relevant single-strand was screened for stimulatory capacity and checked on unblocked PBMCs. The single-strands were transfected by complexation with poly-L-Arginine and 20 h post transfection for TLR7 activation IFNa, for TLR8 activation IL12p70 was measured by ELISA. […]
FIG. 6: (A) Methylations inert for RIG-I activation were combined in the antisense strand and the resulting duplex was used for stimulation of chloroquine-blocked PBMCs at a concentration of 0.8 μg/ml. IFNa was measured by ELISA at 20 h post stimulation. […]
FIG. 7: (A) PBMCs were blocked with Chloroquine and stimulated with duplexes at a concentration of 0.8 μg/ml. 20 h post stimulation IFNa was measured by ELISA. […] 20 h post stimulation IFNa was determined in the supernatant by ELISA. […]

Substance	IFNa corresponding to 100% (50 nM, chloroquine-blocked PBMCs, Lipofectamine, 20 h, 4 donors) [pg/mL]	duplex immune activity (effect of 5′-PTO modification), in words (compared with s15/as3)
3P-GFP2: ppp-GACGCUGACCCUGAAGUUCAUCUU / CUGCGACUGGGACUUCAAGUAGAA; unmodified triphosphate duplex (5'-triphosphate, chemistry not fully specified; one strand is listed 3' to 5')	16044	
s15 PTO/as3 PTO: G*A*C GCUGACCCUGAAmGUUCAUC U U / C U GmCGACUGGGACUU CAAGUAG*A*A; * = PTO, Nm = 2′-OCH3 (sense GACGCUGACCCUGAAGUUCAUCUU; antisense CUGCGACUGGGACUUCAAGUAGAA; phosphorothioate and 2'-O-methyl modifications, chemistry not fully specified; one strand is listed 3' to 5')		maximum increase in activity
